For the test, the target named is T1, biotinylated human IL-17 (binding to IL17R/Fc) (Homo sapiens, UniProt Q16552).
T1 construct: purchased R&D Systems 317-ILB (IL-17, biotinylated); 177-IR (IL17R/Fc)
T1 sequence (Q16552 20-155 limits assumed): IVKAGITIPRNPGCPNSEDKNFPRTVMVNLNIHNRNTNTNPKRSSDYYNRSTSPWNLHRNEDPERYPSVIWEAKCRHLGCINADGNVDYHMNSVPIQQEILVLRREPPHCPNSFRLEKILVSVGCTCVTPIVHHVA
Kind of test: IL-17 competition ELISA II (captured IL17R/Fc, biotinylated IL-17). As for the experimental part: In this version, a high binding 96-well plate (Costar #9018) was coated with 20 nM of goat anti-human IgG (KPL 01-10-02) in PBS, 100 μL/well, for 30 min at 37° C. followed by 5 min at 4° C. The plate was then washed in PBST (PBS/0.05% Tween-20) on a plate washer, (BioTek ELx450) then blocked with protein-free blocking buffer (Thermo Scientific #37573) in 250 μL/well for 30 min on a shaker at room temperature, and then washed again. IL17R/Fc (R&D Systems #177-IR; 10 nM in PBST, 100 μL/well) was then added to all wells. The plate was then incubated for 30 minutes at room temperature on the shaker.
While the receptor capture step was underway, compound dilutions were prepared in PBST to a concentration of 1 μM in 1.5 mL tubes. After the receptor capture step, the plate was washed and 50 μL PBST was added to the wells in row B down to row H. Then, 62.5 μL of the 1 μM compound dilutions were added to the wells of row A. From row A, 12.5 μL of the compound solution was removed and added to row B with mixing and this process of 5-fold dilutions was continued, by row, to row G. One of the wells in row A received only PBST (62.5 μL) and this dilution series served as the no competitor control. Then, going up from row G to row A, 50 μL of b-IL-17 (biotinylated human IL-17, R&D Systems #317-ILB; 20 nM) was added to all wells. Row H received 50 μL of PBST and served as the blank row, i.e., no compound and no b-IL-17. The plate was then incubated for 30 minutes at room temperature on the shaker.
After the wash, 100 μL Streptavidin-Horseradish Peroxidase (SA-HRP) (KPL #14-30-00) at 25 ng/mL in PBST was added to each well in the plate and the plate incubated for 30 minutes at room temperature followed by wash and 100 μL SureBlue™ TMB (KPL #52-00-03). After sufficient color development (approx 3-6 minutes), the reaction was fixed by the addition of 100 μL/well 0.5 N HCl and absorbance was measured at 450 nm on a BioTek Synergy 2 plate reader. The absorbances of ‘no competitor’ control and blank control should not exceed 1.5 A.U. and 0.06 A.U., respectively.
Data was processed using BioAssay Enterprise v10.1.4 (CambridgeSoft) software. Linear OD λ450 were plotted against log concentration (x) and fitted to a 4-parameter logistic equation. IC50 was calculated using positive ‘no competitor’ control data as an upper limit and blank control as a lower limit in each assay.
The term IC50 denotes the point on the concentration scale where inhibition reaches its midpoint. Take `O=C1CC2(CCCC2)CC(=O)N[C@H](Cc2ccc(NC(=O)[C@H](Cc3ccccc3Cl)NC(=O)[C@@H](O)c3ccccc3)cc2)C(=O)NCCOCCOCCN1` [Compound 544]: the IC50 is < 0.1 µM.
To `C[C@H]1NC(=O)[C@@H](Cc2ccc(NC(=O)[C@H](Cc3ccccc3Cl)NC(=O)C(F)(F)c3ccccc3)cc2)NC(=O)CC2(CCCC2)CC(=O)N2CCN(CCNC1=O)CC2` [Compound 542] belongs < 0.1 µM; to `CN1CCOCCOCCN(C)C(=O)[C@@H](Cc2ccc(NC(=O)[C@H](Cc3ccccc3Cl)NC(=O)Cc3ccc(F)cc3)cc2)NC(=O)CC2(CCCC2)CC1=O` [Compound 590], < 0.1 µM; to `O=C1CNC(=O)[C@@H](Cc2ccc(NC(=O)[C@@H](Cc3ccccc3Cl)NC(=O)Cc3ccccc3)cc2)NC(=O)CC2(CCCC2)CC(=O)NCCCCCN1` [Compound 526], 0.1 to 1 µM.
To `CCOC(=O)N[C@@H](Cc1ccccc1Cl)C(=O)Nc1ccc(C[C@H]2NC(=O)CC3(CCCC3)CC(=O)NCCCCCNC(=O)[C@@H](C)NC2=O)cc1` [Compound 577] belongs < 0.1 µM; to `O=C1CNC(=O)[C@@H](Cc2ccc(NC(=O)[C@@H](NC(=O)c3ccc(Cl)cc3)C3CCCCC3)cc2)NC(=O)CC2(CCCC2)CC(=O)NCCCCCN1` [Compound 396], < 0.1 µM.
With `CN1C(=O)CC2(CCCC2)CC(=O)NCCCCCCCCNC(=O)[C@H]1Cc1ccc(NC(=O)[C@H](Cc2ccccc2Cl)NC(=O)C2(c3ccc(F)cc3)CC2)cc1` [Compound 505], the IC50 was 1 to 10 µM.
With `O=C1CC2(CCCC2)CC(=O)N[C@H](Cc2ccc(NC(=O)[C@H](Cc3ccccc3Cl)NC(=O)C(F)(F)c3ccccc3)cc2)C(=O)NCCN2CCN(CCN1)CC2` [Compound 531], the IC50 is 0.1 to 1 µM.
With `C[C@H]1NC(=O)[C@@H](Cc2cccc(NC(=O)[C@H](Cc3ccccc3Cl)NC(=O)Cc3ccc(F)cc3)c2)NC(=O)CC2(CCCC2)CC(=O)NCCCCCNC1=O` [Compound 492], the 50% inhibitory concentration (IC50) lay in the range of 0.1 to 1 µM.
With `CC(C)OC(=O)N[C@@H](Cc1ccccc1Cl)C(=O)Nc1ccc(C[C@H]2NC(=O)CC3(CCCC3)CC(=O)NCCOCCOCCNC2=O)cc1` [Compound 580], the IC50 is < 0.1 µM.
Regarding `C[C@H]1NC(=O)[C@@H](Cc2ccc(NC(=O)[C@H](Cc3ccccc3Cl)NC(=O)Cc3ccc(F)cc3)cc2)N(C)C(=O)CC2(CCCC2)CC(=O)NCCCCCN(C)C1=O` [Compound 518], the IC50 was < 0.1 µM.
The result for `C[C@H]1NC(=O)[C@@H](Cc2ccc(NC(=O)[C@@H](NC(=O)Cc3ccc(N(C)C)cc3)C3Cc4ccccc4C3)cc2)NC(=O)CC2(CCCC2)CC(=O)N(C)CCCCCN(C)C1=O` [Compound 644] reads < 0.1 µM.
The result for `O=C1CC2(CCCC2)CC(=O)N[C@H](Cc2ccc(NC(=O)[C@H](Cc3ccccc3Cl)NC(=O)Cc3ccc(F)cc3)cc2)C(=O)NCCCC[C@@H](C(=O)O)N1` [Compound 460] reads < 0.1 µM; that for `O=C1CC2(CCCC2)CC(=O)N[C@H](Cc2ccc(NC(=O)[C@H](Cc3ccccc3Cl)NC(=O)c3ccccc3O)cc2)C(=O)NCCOCCOCCN1` [Compound 537], < 0.1 µM; that for `CN(C)c1ccc(CC(=O)N[C@H](C(=O)Nc2ccc(C[C@H]3NC(=O)CC4(CCCC4)CC(=O)NCCOCCOCCNC3=O)cc2)C2CCCCC2)cc1` [Compound 596], < 0.1 µM.
To `CCOC(=O)N[C@@H](Cc1ccccc1Cl)C(=O)Nc1ccc(C[C@H]2NC(=O)CC3(CCCC3)CC(=O)NCCOCCOCCNC2=O)cc1` [Compound 579] belongs < 0.1 µM; to `CN1CCCCCNC(=O)[C@@H]2CCCN2C(=O)[C@@H](Cc2ccc(NC(=O)[C@H](Cc3ccccc3)N(C)C(=O)c3ccccc3)cc2)N(C)C(=O)CC2(CCCC2)CC1=O` [Compound 383], 1 to 10 µM; to `C[C@H]1NC(=O)[C@@H](CCCCNC(=O)[C@H](Cc2ccccc2Cl)NC(=O)C(F)(F)c2ccccc2)NC(=O)CC2(CCCC2)CC(=O)NCCCCCNC1=O` [Compound 606], > 10 µM.
Consider `CC(C)OC(=O)N[C@@H](Cc1ccccc1Cl)C(=O)Nc1ccc(C[C@H]2NC(=O)CC3(CCCC3)CC(=O)NCCCCCNC(=O)[C@@H](C)NC2=O)cc1` [Compound 578], for which the IC50 was < 0.1 µM.
With `CN1CCCCCN(C)C(=O)[C@@H](Cc2ccncc2)NC(=O)[C@@H](Cc2ccc(NC(=O)[C@H](Cc3ccccc3Cl)NC(=O)Cc3cccnc3)cc2)NC(=O)CC2(CCCC2)CC1=O` [Compound 629], the IC50 was < 0.1 µM.
Take `COC(=O)N[C@@H](Cc1ccccc1Cl)C(=O)Nc1ccc(C[C@H]2NC(=O)CC3(CCCC3)CC(=O)N(C)CCOCCN(C)C(=O)[C@@H](C)NC2=O)cc1` [Compound 569]: the IC50 is < 0.1 µM.
To `NC(=O)c1ccccc1C[C@H]1NC(=O)[C@@H](Cc2ccc(NC(=O)[C@H](Cc3ccccc3Cl)NC(=O)Cc3ccc(CO)cc3)cc2)NC(=O)CC2(CCCC2)CC(=O)N[C@H](C(=O)O)CCCCNC1=O` [Compound 659] belongs < 0.1 µM; to `CN1CCCCCN(C)C(=O)[C@@H](Cc2ccccn2)NC(=O)[C@@H](Cc2ccc(NC(=O)[C@H](Cc3ccccc3Cl)NC(=O)Cc3ccc(F)cc3)cc2)NC(=O)CC2(CCCC2)CC1=O` [Compound 524], < 0.1 µM; to `C[C@H]1NC(=O)[C@@H](Cc2ccc(NC(=O)[C@@H](NC(=O)C(F)(F)c3ccccc3)C3CCCCC3)cc2)NC(=O)CC2(CCCC2)CC(=O)N(C)CCN(C)CCN(C)C1=O` [Compound 604], < 0.1 µM.
To `C[C@H]1NC(=O)[C@@H](Cc2ccc(NC(=O)[C@H](Cc3ccccc3Cl)NC(=O)Cc3ccc(F)cc3)cc2)NC(=O)CC2(CC2)CC(=O)NCCCCCNC1=O` [Compound 554] belongs < 0.1 µM; to `CN1CCCCCN(C)C(=O)[C@@H](CC(N)=O)NC(=O)[C@@H](Cc2ccc(NC(=O)[C@H](Cc3ccccc3Cl)NC(=O)C(F)(F)c3ccccc3)cc2)NC(=O)CC2(CCCC2)CC1=O` [Compound 669], < 0.1 µM; to `O=C1CC2(CCCC2)CC(=O)N[C@H](Cc2ccc(NC(=O)[C@H](Cc3ccccc3Cl)NC(=O)Cc3ccc(CO)cc3)cc2)C(=O)NCCOCCN1` [Compound 400], < 0.1 µM.
Turning to `COC(=O)N[C@H](C(=O)Nc1ccc(C[C@H]2NC(=O)CC3(CCCC3)CC(=O)NCCOCCOCCNC2=O)cc1)C1CCCCC1` [Compound 632], the IC50 lay within 0.1 to 1 µM.
Regarding `C[C@H]1NC(=O)[C@@H](Cc2ccc(NC(=O)[C@H](Cc3ccccc3Cl)NC(=O)Cc3ccc(F)cc3)cc2)NC(=O)CC(C)(C)NC(=O)CCCCCCNC1=O` [Compound 620], the IC50 was < 0.1 µM.
To `O=C1CC2(CCCC2)CC(=O)N[C@H](Cc2ccc(NC(=O)[C@H](Cc3ccccc3Cl)NC(=O)Cc3ccc(CO)cc3)cc2)C(=O)NC/C=C/CCCCCN1` [Compound 365] belongs < 0.1 µM; to `CN1C(=O)CC2(CCCC2)CC(=O)NCCOCCOCCNC(=O)[C@H]1Cc1ccc(NC(=O)[C@H](Cc2ccccc2Cl)NC(=O)C2(c3ccc(F)cc3)CC2)cc1` [Compound 504], 0.1 to 1 µM; to `CN1CCCC/C=C/CNC(=O)[C@@H](Cc2ccc(NC(=O)[C@H](Cc3ccccc3Cl)NC(=O)Cc3ccc(F)cc3)cc2)NC(=O)CC2(CCCC2)CC1=O` [Compound 447], < 0.1 µM.
Consider `COC(=O)N[C@H](C(=O)Nc1ccc(C[C@H]2NC(=O)CC3(CCCC3)CC(=O)N(C)CCCCCN(C)C(=O)[C@@H](C)NC2=O)cc1)C1CCCCC1` [Compound 625], for which the IC50 lay in the range of 0.1 to 1 µM.
The result for `O=C1CC2(CCCC2)CC(=O)N[C@H](Cc2ccc(NC(=O)[C@H](Cc3ccccc3Cl)NC(=O)Cc3ccc(F)cc3)cc2)C(=O)N[C@H](Cc2ccccn2)C(=O)NCCCCCN1` [Compound 435] reads < 0.1 µM; that for `CN(C)CC[C@H]1NC(=O)[C@@H](Cc2ccc(NC(=O)[C@H](Cc3ccccc3Cl)NC(=O)C(F)(F)c3ccccc3)cc2)NC(=O)CC2(CCCC2)CC(=O)N(C)CCOCCN(C)C1=O` [Compound 642], < 0.1 µM; that for `C[C@H]1NC(=O)[C@@H](Cc2ccc(NC(=O)[C@H](Cc3cccs3)NC(=O)C(F)(F)c3ccccc3)cc2)NC(=O)CC2(CCCC2)CC(=O)N(C)CCCCCN(C)C1=O` [Compound 630], < 0.1 µM.
To `O=C1CC2(CCCC2)CC(=O)N[C@H](Cc2ccc(NC(=O)[C@H](Cc3ccccc3Cl)NC(=O)Cc3cccc(O)c3)cc2)C(=O)NCCCC[C@@H](C(=O)O)N1` [Compound 461] belongs < 0.1 µM.
